Laboratory results published in US20120302748A1, “TREATMENT OR PROPHYLAXIS OF PROLIFERATIVE CONDITIONS” (THE UNIVERSITY COURT OF THE UNIVERSITY OF DUNDEE, priority 2009, published 2012).
Like-named read-outs stand apart in the source and are kept apart here.

Assays:
[1] = system: UTSCC-14 primary human tumour xenograft; experiment: Anti-tumour activity in primary human tumour xenograft model; type: in vivo, nude mice; details: for Tumour growth delay at 28 days: 2 cycles daily for 5 days/2 days off
Procedure: Primary UTSCC-14 cell lines 3×10^6 were implanted subcutaneously in the flank of nude mice. Mice were randomized to 10 animals per group when the tumour volume was 100 to 150 mm^3. SU046-04 was given intraperitoneally at 12, 25 and 50 mg/Kg in PBS versus versus vehicle alone for 2 cycles: daily for 5 days/2 days off. Tumour volume was measured every 4 days using calipers. […] Tumour growth delay at 28 days was 31% at 12 mg/Kg, 56% at 25 mg/Kg, and 90% at 50 mg/Kg with 4/10 complete responses.

CHO/CYP1B1 cells [2] = system: CHO/CYP1B1 cells
CHO/CYP1B1 cells [3] = experiment: cells; details: Cricetulus griseus
CYP1A1 [4] = experiment: in vitro; details: Chinese hamster
CYP1B1 [5] = target: T1, CYP1B1 (Homo sapiens, UniProt Q16678); experiment: CYP1B1 substrate prediction model (Gaussian Kernel weighted k-NN); details: predicted versus actual
T1 sequence (Q16678 1-543): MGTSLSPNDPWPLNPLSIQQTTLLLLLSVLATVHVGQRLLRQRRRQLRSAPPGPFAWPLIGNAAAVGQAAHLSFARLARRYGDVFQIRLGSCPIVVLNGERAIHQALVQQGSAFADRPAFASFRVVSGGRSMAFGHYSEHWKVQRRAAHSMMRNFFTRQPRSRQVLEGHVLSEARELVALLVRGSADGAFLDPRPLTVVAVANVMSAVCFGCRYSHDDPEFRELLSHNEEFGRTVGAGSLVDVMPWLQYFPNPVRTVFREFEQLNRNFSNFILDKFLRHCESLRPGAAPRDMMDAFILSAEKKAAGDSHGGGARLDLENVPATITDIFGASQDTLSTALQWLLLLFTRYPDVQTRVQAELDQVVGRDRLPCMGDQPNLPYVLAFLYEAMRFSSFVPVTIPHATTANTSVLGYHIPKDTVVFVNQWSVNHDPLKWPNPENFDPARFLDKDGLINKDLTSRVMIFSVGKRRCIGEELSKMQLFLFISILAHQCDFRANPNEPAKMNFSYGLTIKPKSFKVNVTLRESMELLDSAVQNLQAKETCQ

UT-SCC-14 tumour cells = experiment: Cytotoxicity in primary HNSCC tumour cell line UT-SCC-14 (MTS assay); details: Homo sapiens, 72 h, read-out: cytotoxicity IC50 UT-SCC-14
Procedure: A UT-SCC-14 tumour cell suspension at 2000 cells per well on a 96-well plate and if necessary add fresh media to give a total volume per well of 100 μl. The cells were allowed to attach for 4 h in an incubator. […] The final concentration of ethanol 0.2% was found not to effect the growth characteristics of the UT-SCC-14 cell line. The UT-SCC-14 cells were incubated with test compound for 72 h after which time all aspirated and replaced with 100 μl of fresh medium to compensate for the loss of medium due to evaporation. The cells were incubated with 20 μl of the MTS assay reagent for 1.5 h and the absorbance per well at 510 nm measured using a plate reader. The mean absorbance and standard deviation for each test compound concentration was calculated versus a series of controls including (a) cells plus medium, (b) cell plus medium containing ethanol 0.2%, (c) medium alone, and (d) medium containing ethanol 0.2% and a range of test compound concentrations from 0 to 100 μmol dm^−3.

CYP1B1 [6] = target: T1, CYP1B1; experiment: CYP1B1 substrate inhibition, P450-Glo Luciferin-CEE luminescent assay; details: human
in vitro = details: Chinese hamster
CYP1A2 = target: T2, CYP1A2 (Homo sapiens, UniProt P05177); experiment: Supersomal CYP1A2 fragmentation of coumarin model prodrugs (kinetic fluorimetry); type: biochemical; details: 10 μmol dm^−3 prodrug, 10 pmol enzyme, pH 7.4, 37° C.; mean ± standard deviation of three
T2 construct: purchased BD Gentest, Oxford, UK
T2 sequence (P05177 2-516 limits assumed): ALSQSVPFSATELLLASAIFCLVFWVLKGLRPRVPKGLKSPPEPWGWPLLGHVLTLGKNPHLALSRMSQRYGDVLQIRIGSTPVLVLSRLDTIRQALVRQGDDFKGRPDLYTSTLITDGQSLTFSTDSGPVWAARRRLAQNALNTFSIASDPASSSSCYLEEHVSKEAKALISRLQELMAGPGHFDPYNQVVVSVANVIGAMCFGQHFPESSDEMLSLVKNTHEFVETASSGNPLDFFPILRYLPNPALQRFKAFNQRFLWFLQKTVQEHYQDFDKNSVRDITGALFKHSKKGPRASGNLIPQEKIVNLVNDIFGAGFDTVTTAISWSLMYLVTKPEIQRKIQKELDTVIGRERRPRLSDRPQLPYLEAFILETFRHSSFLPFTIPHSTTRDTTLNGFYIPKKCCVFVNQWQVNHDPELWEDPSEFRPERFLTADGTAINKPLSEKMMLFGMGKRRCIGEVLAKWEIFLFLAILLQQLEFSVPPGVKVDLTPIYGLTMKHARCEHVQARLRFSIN
Procedure: (§1) Supersomal™ enzyme metabolism was started by adding a stock solution of prodrug dissolved in DMSO to give a final concentration of 10 μmol dm^−3 prodrug and 0.5% DMSO. HLM screening used 60 microlitre microsomes, 100 μmol dm^−3 NADPH, in 10 mmol dm^−3 potassium phosphate buffer at pH 7.4 and 37° C., in 1.5 ml total reaction volume.
(§2) Therefore, enzymatic hydroxylation of the hetero-aromatic trigger and resultant linker fragmentation can be monitored in real time by release of the coumarin anion by kinetic fluorimetry.
(§3) Release of the coumarin anion indicative of linker fragmentation was monitored using a 1 cm path length fluorescence cell in a Cary Eclipse kinetic flourimeter with excitation and emission slits set at 5 nm. Coumarin anion release from compounds of the invention was detected at the excitation wavelength λex=350 nm and the emission wavelength λem=450 nm. Change in fluorescence intensity was quantified against a linear calibration plot of fluorescence intensity versus coumarin concentration (0 to 3.5 μmol dm^−3) in 10 mmol dm^−3 potassium phosphate buffer at pH 7.4 using the same instrument settings as for enzyme metabolism.

CYP1A1 [7] = target: T3, CYP1A1 (Homo sapiens, UniProt P04798); experiment: Supersomal CYP1A1 fragmentation of coumarin model prodrugs (kinetic fluorimetry); type: biochemical; set-up: purchased BD Gentest, Oxford, UK; details: 10 μmol dm^−3 prodrug, 10 pmol enzyme, pH 7.4, 37° C.; mean ± standard deviation of three
T3 sequence (P04798 1-512): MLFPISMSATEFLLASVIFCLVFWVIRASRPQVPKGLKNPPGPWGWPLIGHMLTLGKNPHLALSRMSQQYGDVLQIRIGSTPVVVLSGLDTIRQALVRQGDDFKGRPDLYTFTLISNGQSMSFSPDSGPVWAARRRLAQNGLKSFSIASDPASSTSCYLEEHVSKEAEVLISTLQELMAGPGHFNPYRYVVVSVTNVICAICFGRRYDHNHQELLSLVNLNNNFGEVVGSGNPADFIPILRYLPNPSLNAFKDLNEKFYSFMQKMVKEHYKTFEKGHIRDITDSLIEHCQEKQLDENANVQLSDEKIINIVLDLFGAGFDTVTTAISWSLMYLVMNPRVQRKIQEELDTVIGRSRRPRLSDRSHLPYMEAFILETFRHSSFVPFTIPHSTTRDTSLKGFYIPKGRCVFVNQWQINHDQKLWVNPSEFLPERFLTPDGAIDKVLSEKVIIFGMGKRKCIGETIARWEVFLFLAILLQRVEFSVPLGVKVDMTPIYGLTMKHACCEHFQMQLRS
Procedure: as §1, §2, §3

CYP1B1 [8] = target: T1, CYP1B1; experiment: in vitro
CYP1B1 [9] = target: T1, CYP1B1; experiment: Supersomal CYP1B1 fragmentation of coumarin model prodrugs (kinetic fluorimetry); type: biochemical; set-up: purchased BD Gentest, Oxford, UK; details: 10 μmol dm^−3 prodrug, 10 pmol enzyme, pH 7.4, 37° C.; mean ± standard deviation of three
Procedure: as §1, §2, §3

[10] = system: human liver microsomes (HLM); experiment: Pooled human liver microsome (HLM) fragmentation of coumarin model prodrugs; type: in vitro ADME; details: 60 μl HLM in 1.5 ml, pH 7.4, 37° C.; mean ± standard deviation of three
Procedure: as §1, §2, §3

CYP1A1 [11] = target: T3, CYP1A1; details: inhibitor at 10 nmol dm^−3
CYP1A1 [12] = target: T3, CYP1A1; details: inhibitor at 10 nmol dm^−3; remark: listed apart in the source
[13] = target: T4, human supersomal CYP1B1 plus reductase (Homo sapiens, UniProt Q16678); experiment: CYP1B1 substrate inhibition, P450-Glo Luciferin-CEE luminescent assay; details: final concentration of 0.5 mmol dm^−3; triplicate, mean ± standard deviation
T4 sequence (Q16678 1-543): T1 sequence (Q16678 1-543)

UT-SCC-9 = experiment: cells; details: Homo sapiens, 72 h, read-out: cytotoxicity IC50 UT-SCC-9
UT-SCC-10 = experiment: cells; details: Homo sapiens, 72 h, read-out: cytotoxicity IC50 UT-SCC-10
UT-SCC-8 = experiment: cells; details: Homo sapiens, 72 h, read-out: cytotoxicity IC50 UT-SCC-8
[14] = 72 h, read-out: Cytotoxicity (IC50) CHO/CYP1B1 72 h
[15] = 96 h, read-out: Cytotoxicity (IC50) CHO/CYP1B1 96 h
[16] = cytotoxicity IC50 in wild-type CHO cells

With `COc1cc(OC)c2oc(COP(=O)(NCCBr)NCCBr)cc2c1` [SU046-04] the “Tumour growth delay at 28 days” value ([1]; 12 mg/Kg intraperitoneally) was 31%, the “Tumour growth delay at 28 days” value ([1]; 25 mg/Kg intraperitoneally) was 56% and the complete responses ([1]; 50 mg/Kg intraperitoneally) was 4/10. For the same molecule, the “Tumour growth delay at 28 days” value ([1]; 50 mg/Kg intraperitoneally) was 90%, the “adverse effects / body weight loss” value ([1]; after highest exposure 250 mg/Kg) was “No observed adverse effects or significant body weight loss” and the “inhibition of tumour growth versus vehicle” value ([1]; all three treatment arms 12, 25 and 50 mg/Kg) was “significant inhibition of tumour growth”. For the same molecule, the “IC50 ratio 72 h (CHO / CHO/CYP1B1)” value (CHO/CYP1B1 cells [2]) was 5075, the IC50 (CHO/CYP1B1 cells [3]; [14]) was 4 ± 2 nM and the IC50 (CHO/CYP1B1 cells [3]; [15]) was 3 ± 1 nM. For the same molecule, the IC50 (CYP1A1 [4]) was 20300 ± 2100 nM, the “% CYP1B1 substrate inhibition accuracy” value (CYP1B1 [5]) was 96% and the IC50 (UT-SCC-14 tumour cells) was 20 ± 10 nM. The inhibition at 0.5 mmol dm^−3 (CYP1B1 [6]) was 96.45 ± 0.22%, the IC50 (in vitro; Cytotoxicity (IC50) CHO 72 h) was 20300 ± 1200 nM and the IC50 (in vitro; Cytotoxicity (IC50) CHO 96 h) was 16200 ± 200 nM. For the same molecule, the IC50 (in vitro; [16]) was ≥ 10000 nM.

With `Cc1cc(=O)oc2cc(OCc3cc4cc(F)cc(F)c4o3)ccc12` [VG016-05, 7-((5,7-difluorobenzofuran-2-yl)methoxy)-4-methyl-2H-chromen-2-one] the “Specific fragmentation activity CYP1A2” value (CYP1A2) was “no release”, the “Specific fragmentation activity CYP1A1” value (CYP1A1 [7]) was “no release” and the “% CYP1B1 substrate inhibition accuracy” value (CYP1B1 [5]) was 82%. The inhibition at 0.5 mmol dm^−3 (CYP1B1 [8]) was 2.45 ± 0.32%, the “Specific fragmentation activity CYP1B1” value (CYP1B1 [9]) was “no release” and the “Specific fragmentation activity HLM” value [10] was “no release”.

With `O=P1(N(CCCl)CCCl)NCCCO1` (stereo not shown) [cyclophosphamide] the “toxicity in the CHO cytotoxicity assay” value (CHO cells) was “non-toxic”.

For tetramethoxystilbene, the “% CYP1B1 substrate inhibition accuracy” value (CYP1B1 [5]) was 98%, the “Specific activity CHO/CYP1A1 Luciferin-CEE” value (CYP1A1 [11]) was 20 ± 5 pmol resorufin or luciferin min^−1 mg protein^−1 and the “Specific activity CHO/CYP1A1 ethoxyresorufin” value (CYP1A1 [12]) was 26 ± 4 pmol resorufin or luciferin min^−1 mg protein^−1.

In the case of `COc1cc(OC)c2oc(COC(=O)Nc3ccn(C4OC(CO)C(O)C4(F)F)c(=O)n3)cc2c1` (stereo not shown) [SU048-04, (5,7-dimethoxybenzofuran-2-yl)methyl 1-(3,3-difluoro-4-hydroxy-5-(hydroxymethyl)-tetrahydrofuran-2-yl)-2-oxo-1,2-dihydropyrimidin-4-ylcarbamate], the IC50 (UT-SCC-14 tumour cells) is reported as 940 ± 20 nM.

For `C[C@]12CC[C@@H]3c4ccc(O)cc4CC[C@H]3[C@@H]1CC[C@@H]2O` [β-estradiol, reference compound], the “% CYP1B1 substrate inhibition accuracy” value (CYP1B1 [5]) was 95% and the “% CYP1B1 substrate inhibition actual” value [13] was 72.34 ± 0.45%.

`CC[C@@]1(O)C(=O)OCc2c1cc1n(c2=O)Cc2cc3cc(OCc4cc5cc(OC)cc(OC)c5o4)ccc3nc2-1` [SU037-04] showed an IC50 (UT-SCC-9) of 220 ± 80 nM, an IC50 (UT-SCC-10) of 210 ± 40 nM and an IC50 (UT-SCC-14 tumour cells) of 120 ± 70 nM. For the same molecule, the IC50 (UT-SCC-8) was 560 ± 40 nM.

With `O=P(O)(NCCCl)NCCCl` [Cl-IPM, N,N-bis(2-chloro-ethyl)phosphoramide, reference compound] the IC50 (CHO/CYP1B1 cells [2]; Chinese hamster) was 8 ± 5 nM.

For `COc1cc(OC)c2oc(COP(=O)(NCCCl)NCCCl)cc2c1` [SU025-04], the “IC50 ratio 72 h (CHO / CHO/CYP1B1)” value (CHO/CYP1B1 cells [2]) was 1689, the IC50 (CHO/CYP1B1 cells [3]; [14]) was 9 ± 5 nM and the IC50 (CHO/CYP1B1 cells [3]; [15]) was 3 ± 2 nM. For the same molecule, the IC50 (CYP1A1 [4]) was 25500 ± 1000 nM, the “% CYP1B1 substrate inhibition accuracy” value (CYP1B1 [5]) was 96% and the IC50 (UT-SCC-14 tumour cells) was 50 ± 10 nM. It also gave an inhibition at 0.5 mmol dm^−3 (CYP1B1 [6]) of 91.22 ± 0.48%, an IC50 (in vitro; Cytotoxicity (IC50) CHO 72 h) of 15200 ± 200 nM and an IC50 (in vitro; Cytotoxicity (IC50) CHO 96 h) of 10100 ± 300 nM. For the same molecule, the IC50 (in vitro; [16]) was ≥ 10000 nM.

For `COc1cc(OC)c2oc(COc3ccc4c(C)cc(=O)oc4c3)cc2c1` [VG035-05, 7-((5,7-dimethoxybenzofuran-2-yl)methoxy)-4-methyl-2H-chromen-2-one], the “Specific fragmentation activity CYP1A2” value (CYP1A2) was “no release”, the “Specific fragmentation activity CYP1A1” value (CYP1A1 [7]) was “no release” and the “% CYP1B1 substrate inhibition accuracy” value (CYP1B1 [5]) was 96%. The inhibition at 0.5 mmol dm^−3 (CYP1B1 [8]) was 97.34 ± 0.32%, the “Specific fragmentation activity CYP1B1” value (CYP1B1 [9]) was 13.65±1.00 pmol coumarin min^−1 pmol cytochrome P450^−1 and the “Specific fragmentation activity HLM” value [10] was “no release”.

For `Cc1cc(=O)oc2cc(NC(=O)OCc3cc4cc(Br)ccc4o3)ccc12` [VG036-05, (5-bromobenzofuran-2-yl)methyl 4-methyl-2-oxo-2H-chromen-7-ylcarbamate], the “Specific fragmentation activity CYP1A2” value (CYP1A2) was “no release”, the “Specific fragmentation activity CYP1A1” value (CYP1A1 [7]) was “no release” and the “Specific fragmentation activity CYP1B1” value (CYP1B1 [9]) was “no release”. For the same molecule, the “Specific fragmentation activity HLM” value [10] was “no release”.

With `Cc1cc(=O)oc2cc(OCc3c4ccccc4cc4ccccc34)ccc12` [SU06-02, 7-(anthracen-9-ylmethoxy)-4-methyl-2H-chromen-2-one] the melting point was 216 to 218 °C.
